Laboratory results: US11970476B1, “6′-(4-chlorophenyl)-2′-alkoxy-3,4′-bipyridine-3′-carbonitriles as antimicrobial compounds” (KING FAISAL UNIVERSITY, priority 2023, dated 2024)

Experiments:
Format in all cases: cell-based
Bacillus cereus = test: Agar plate disc-diffusion, antibacterial inhibition zone; conditions: DMSO control zone subtracted
Description: (§1) The agar plate disc-diffusion method was applied. Sterilized filter papers (6 mm in diameter) were wetted with 10 μL of a solution of 6′-(4-chlorophenyl)-2′-ethoxy-3,4′-bipyridine-3′-carbonitrile (4) or 6′-(4-chlorophenyl)-2′-methoxy-3,4′-bipyridine-3′-carbonitrile (5) to be tested, containing […], and the discs were allowed to air dry. The discs were then placed onto the surface of agar plates (nutrient agar for bacteria and Sabouraud's dextrose agar for fungi) seeded with the test organism. Each plate contained 15 mL of the agar medium, previously seeded with 0.2 mL of the broth culture of each organism pregrown for 18 hours. The plates were incubated at 37° C. for 48 hours, and 72 hours for fungi. The inhibition zones were measured in mm. Discs impregnated with DMSO were used as a control, and its inhibition zone was subtracted from the tested compound actual inhibition zone.
(§2) The results of the antimicrobial testing can be observed in Tables 1 and 2, below, using ciprofloxacin as a reference.

Escherichia coli = test: as above; conditions: DMSO control zone subtracted
Description: as §1, §2

Pseudomonas aeruginosa = test: as above; conditions: DMSO control zone subtracted
Description: as §1, §2

Staphylococcus aureus = test: as above; conditions: DMSO control zone subtracted
Description: as §1, §2

Aspergillus flavus = test: Agar plate disc-diffusion, antifungal inhibition zone; conditions: 72 hours, DMSO control zone subtracted
Description: as §1, §2

[1] = tested on: Chrysosporium keratinophilum; test: as above; conditions: 72 hours, DMSO control zone subtracted
Description: as §1, §2

different microbes = test: Antimicrobial testing, overall statement on Tables 1 and 2; conditions: summary of Tables 1 and 2, bacteria and fungi
Description: as §1
Their antibacterial activity was screened against gram positive bacteria namely Bacillus cereus and Staphylococcus aureus and gram-negative bacterial strains namely Pseudomonas aeruginosa and Escherichia coli, while their antifungal activity was screened against Aspergillus flavus and Chrysosporium keratinophilum.

[2] = A = concentration of comp. = 10,000 μL
[3] = B = concentration of comp. = 30,000 μL
[4] = C = concentration of comp. = 50,000 μL

Row | Compound | inhibition zone (Bacillus cereus; [2]) [mm] | inhibition zone (Bacillus cereus; [3]) [mm] | inhibition zone (Bacillus cereus; [4]) [mm] | inhibition zone (Escherichia coli; [2]) [mm] | inhibition zone (Escherichia coli; [3]) [mm] | inhibition zone (Escherichia coli; [4]) [mm] | inhibition zone (Pseudomonas aeruginosa; [2]) [mm] | inhibition zone (Pseudomonas aeruginosa; [3]) [mm] | inhibition zone (Pseudomonas aeruginosa; [4]) [mm] | inhibition zone (Staphylococcus aureus; [2]) [mm] | inhibition zone (Staphylococcus aureus; [3]) [mm] | inhibition zone (Staphylococcus aureus; [4]) [mm] | inhibition zone (Aspergillus flavus; [2]) [mm] | inhibition zone (Aspergillus flavus; [3]) [mm] | inhibition zone (Aspergillus flavus; [4]) [mm] | inhibition zone [1, 2] [mm] | inhibition zone [1, 3] [mm] | inhibition zone [1, 4] [mm] | antimicrobial activities (in words) (different microbes)
1 | O=C(O)c1cn(C2CC2)c2cc(N3CCNCC3)c(F)cc2c1=O [Cip., ciprofloxacin, reference compound] | 29 | 30 | 42 | 30 | 39 | 60 | 29 | 30 | 53 | 43 | 44 | 53 | 29 | 30 | 42 | 29 | 30 | 53 | 
2 | CCOc1nc(-c2ccc(Cl)cc2)cc(-c2cccnc2)c1C#N [Compound 4, 6′-(4-chlorophenyl)-2′-ethoxy-3,4′-bipyridine-3′-carbonitrile] | 24 | 27 | 39 | 27 | 38 | 52 | 25 | 29 | 39 | 15 | 18 | 31 | 21 | 26 | 37 | 24 | 29 | 42 | high antimicrobial activities
3 | COc1nc(-c2ccc(Cl)cc2)cc(-c2cccnc2)c1C#N [Compound 5, 6′-(4-chlorophenyl)-2′-methoxy-3,4′-bipyridine-3′-carbonitrile] | 26 | 28 | 39 | 28 | 37 | 53 | 26 | 30 | 42 | 17 | 24 | 30 | 25 | 28 | 40 | 23 | 28 | 41 | high antimicrobial activities
